Experimental data reported in US20170320848A1, “COMPOUNDS FOR USE IN ANTHELMINTHIC TREATMENT” (Bayer Animal Health GMBH, priority 2014, published 2017).

Assay: Measurement of LogP values by HPLC on reversed phase columns (EEC directive 79/831 Annex V.A8)
Type: physicochemical
Conditions: acidic range, 0.1% formic acid in water and acetonitrile as eluent

Structure (SMILES)	logP (HCOOH)[a]
Cc1cc(-c2ccc(C(F)(F)F)cc2)ccc1C(F)(F)CNC(=O)c1ccccc1C(F)(F)F [Example 88]	4.62
N#Cc1cc(-c2cc(F)c(F)c(F)c2)ccc1C(F)(F)CNC(=O)c1ccccc1C(F)(F)F [Example 107]	3.89
N#Cc1cc(-c2ccc(C(F)(F)F)cc2)ccc1C(F)(F)CNC(=O)c1ccccc1C(F)(F)F [Example 85]	4.07
O=C(NCC(F)(F)c1ccc(-c2ccc(OC(F)(F)F)cc2)cc1Cl)c1ccccc1C(F)(F)F [Example 39]	4.67
N#Cc1cc(-c2ccc(OC(F)(F)F)cc2)ccc1C(F)(F)CNC(=O)c1ccccc1C(F)(F)F [Example 72]	4.23
O=C(NCC(F)(F)c1ccc(-c2cc(F)c(F)c(F)c2)cc1Cl)c1ccccc1I [Example 114]	4.34
O=C(NCC(F)(F)c1ccc(-c2ccc(N3CCOCC3)c(F)c2)cc1Cl)c1ccccc1C(F)(F)F [Example 113]	4.05
O=C(NCC(F)(F)c1ccc(-c2cc(F)c(OC(F)F)c(F)c2)cc1Cl)c1ccccc1C(F)(F)F [Example 66]	4.20
Cc1cc(-c2cc(Cl)c(F)c(Cl)c2)ccc1C(F)(F)CNC(=O)c1ccccc1C(F)(F)F [Example 128]	5.08
CC(=O)N1CCN(c2ccc(-c3ccc(C(F)(F)CNC(=O)c4ccccc4C(F)(F)F)c(Cl)c3)cc2)CC1 [Example 104]	3.17
N#Cc1cc(-c2ccc(C(F)F)cc2)ccc1C(F)(F)CNC(=O)c1ccccc1C(F)(F)F [Example 89]	3.59
N#Cc1ccc(-c2ccc(C(F)(F)CNC(=O)c3ccccc3C(F)(F)F)c(C#N)c2)cc1 [Example 73]	1.33
O=C(NCC(F)(F)c1c(F)cc(-c2cccc(C(F)F)c2)cc1F)c1ccccc1C(F)(F)F [Example 82]	3.83
O=C(NCC(F)(F)c1ccc(-c2ccc(C(F)F)cc2)cc1Cl)c1ccccc1C(F)(F)F [Example 40]	3.99
CN1CCN(c2ccc(-c3ccc(C(F)(F)CNC(=O)c4ccccc4C(F)(F)F)c(Cl)c3)cc2)CC1 [Example 84]	1.84
O=C(NCC(F)(F)c1ccc(-c2cccc(C(F)(F)F)c2)cc1Cl)c1ccccc1C(F)(F)F [Example 67]	4.55
O=C(NCC(F)(F)c1ccc(-c2cc(F)c(F)c(F)c2)cc1Cl)c1ccccc1Br [Example 116]	4.28
O=C(NCC(F)(F)c1c(F)cc(-c2ccc(OC(F)(F)F)cc2)cc1F)c1ccccc1C(F)(F)F [Example 48]	4.56
Cc1cc(-c2cccc(C(F)F)c2)ccc1C(F)(F)CNC(=O)c1ccccc1C(F)(F)F [Example 90]	4.07
O=C(NCC(F)(F)c1ccc(-c2ccc(S(=O)(=O)C(F)(F)F)cc2)cc1Cl)c1ccccc1C(F)(F)F [Example 45]	4.32
Cc1cc(-c2ccc(C(F)F)cc2)ccc1C(F)(F)CNC(=O)c1ccccc1C(F)(F)F [Example 80]	4.06
COc1cc(-c2cccc(C(F)F)c2)ccc1C(F)(F)CNC(=O)c1ccccc1C(F)(F)F [Example 92]	3.81
O=C(NCC(F)(F)c1c(F)cc(-c2ccc(C(F)F)cc2)cc1F)c1ccccc1C(F)(F)F [Example 81]	3.9
O=C(NCC(F)(F)c1ccc(-c2ccc(OC(F)(F)F)c(F)c2)cc1Cl)c1ccccc1C(F)(F)F [Example 106]	4.8
O=C(NCC(F)(F)c1ccc(-c2ccc(C(F)(F)F)cc2)cc1Cl)c1ccccc1C(F)(F)F [Example 41]	4.56
O=C(NCC(F)(F)c1ccc(-c2ccc(F)cc2)cc1Cl)c1ccccc1Cl [Example 59]	4.0

Same assay, conditions: reversed phase HPLC columns, acidic range, 0.1% formic acid in water and acetonitrile as eluent, read-out: logP (HCOOH)[a]

Structure (SMILES)	chromatographic logP
NCC(F)(F)c1ccc(-c2ccc(F)cc2)cc1Cl [Example VII-1, 2-[2-chloro-4-(4-fluorophenyl)phenyl]-2,2-difluoro-ethanamine]	1.35
CS(=O)(=O)c1ccc(-c2ccc(C(F)(F)CNC(=O)c3ccccc3C(F)(F)F)c(Cl)c2)cc1 [Example 24]	2.99

Same assay, conditions: reversed phase HPLC columns, neutral range, 0.001 molar ammonium acetate solution in water and acetonitrile as eluent, read-out: LogP[b]

Structure (SMILES)	chromatographic logP
NCC(F)(F)c1ccc(-c2ccc(F)cc2)cc1Cl [Example VII-1, 2-[2-chloro-4-(4-fluorophenyl)phenyl]-2,2-difluoro-ethanamine]	3.1
